Test results taken from a melting point compilation (Tetko et al.; mined from patent text by program, amines drawn as free bases though some values may be those of a salt).

| SMILES | melting point |
| --- | --- |
| Nc1nc(NC2Cc3ccccc3N(S(=O)(=O)c3ccc(Cl)cc3Cl)C2)c2cn[nH]c2n1 (configuration not stated) | 153 to 163 °C |
| COC(=O)C(C)(C)Cc1ccc(CC(C)(C)C(=O)OC)cc1 | 74 to 76 °C |
| C1=C(c2ccc3[nH]ccc3c2)CCN(Cc2c[nH]c3ncccc23)C1 | 187 to 189 °C |
| CCc1cc(OC)cc2nc(-c3cccnc3N3CC[C@H](N(C)C)C3)oc(=O)c12 | 148 to 155 °C |
| COC(=O)c1ccc(NN)c(Cl)c1 | 120 °C |
| C#Cc1ccc(-c2c(C)nnc(Cl)c2-c2c(F)cc(F)cc2F)cc1 | 174 to 175 °C |
| CCOC(=O)C(=O)Nc1cc(C)nc(N2CCc3ccccc3C2)c1 | 128 to 129 °C |
| O=C1CCC(n2cnc(-c3ccc(F)cc3)c2-c2ccnc(OCCO)n2)CC1 | 203 to 205 °C |
| N#CCCCCNc1ccc(O)cc1 | 88 to 90 °C |
| CC1(C)COC(c2ccc(F)cc2-c2ccc3c(c2)CCC(Cc2ccccc2)C3=O)=N1 (configuration not stated) | 114 to 115 °C |
| COCc1nc2c(N)nc3cc(CCS(C)(=O)=O)ccc3c2n1CC(C)(C)O | 210 to 212 °C |
| N#Cc1c(Br)c(Br)n(C#N)c1Br | 195 to 198 °C |
| FC1(F)CCN(c2cccc3c2OCCNC3)C1 | 54 °C |
| O=C1Nc2cccnc2N(C(=O)NCCN2CCCCC2CCCCN2CCCCC2)c2ccccc21 (configuration not stated) | 154 to 155 °C |
| CC(C)N(Cc1ccccc1)C(=O)C(=O)N1CCN(c2ccccc2C(C)(C)C)CC1 | 65 to 68 °C |
| CCOCc1nc2c(N)nc3ccccc3c2n1CC(C)(C)O | 190 to 193 °C |
| CCc1cn2c(N)c(Cl)cc(C(=O)NC3CCN(CCCOC)CC3)c2n1 | 179 °C |
| Cn1ncc2[nH]c3cccc(F)c3c(=O)c21 | > 300 °C |
| CNC(=O)C(NC(=O)OCc1ccccc1)C(N)=O (configuration not stated) | 178 to 180 °C |
| CCOC(=O)c1[nH]c(C)c(C)c1O | 111 to 113 °C |
| CC1=NN=C(c2ccc([N+](=O)[O-])cc2)c2cc(Br)ccc2C1 | 200 to 205 °C |
| Oc1ccc(-c2nc3cc(O)cc(Br)c3o2)c(F)c1 | 248 to 250 °C |
| CN1CCN(C2=Nc3ccccc3Sc3ccccc32)C[C@@H]1CCc1ccccc1 | 44 to 54 °C |
| CC(=O)SCC(C(=O)N[C@@H](CC(C)C)C(=O)O)C(F)(F)F (some centres not stated) | 150 to 152 °C |
| COc1ccc(CN2CCc3cc(OCc4ccccc4)c(OC)cc3C2)cc1OC | 98 to 99 °C |
| CCOC(=O)C(C)(Cc1ccc(O)c(OC)c1)NN (configuration not stated) | 114 to 116 °C |
| CCn1cc(C(=O)O)c(=O)c2cc(F)c(N3CC4CCC3CN4)cc21 (configuration not stated) | 270 to 272 °C |
| CCCCCCCNC(=O)n1nc(Oc2ncc(C(F)(F)F)cc2Cl)c(Cl)c1C | 67 to 68 °C |

| SMILES | melting point |
| --- | --- |
| COC1(OC)CCN(c2cc3c(cc2F)c(=O)c(C(=O)O)cn3C2CC2)C1 | 224 to 226 °C |
| N#CCCn1[nH]c(C#N)cc1=O | 162 to 164 °C |
| Oc1c(CN2CCSCC2)ncc2c1COC2c1ccccc1 (configuration not stated) | 185 °C |
| COc1cc(-c2cnc3[nH]cc(C(=O)NCC(C)O)c3n2)cc(OC)c1OC (configuration not stated) | 202 to 203 °C |
| CCCCCCCCCCNC(=O)c1cccc(N)c1 | 56 to 58 °C |
| O=C(CBr)Nc1ccccc1C(=O)O | 165 to 168 °C |
| CCCCCCCCC(=O)N(C)O | 29 °C |
| CN(CCO)S(=O)(=O)c1cc([N+](=O)[O-])c(Cl)s1 | 62 °C |
| CCOC(=O)c1cn2c(n1)SCCC2 | 99 to 100 °C |
| COc1cc(NC(=O)CCCCCN2CC(C)NC(C)C2)c2nccc(C)c2c1 (configuration not stated) | 94 to 96 °C |
| CCCCCCCCCCCc1ccc(CCCC(N)(CO)CCO)cc1 (configuration not stated) | 73 to 76 °C |
| COc1cc(C)nc(NC(N)=S)n1 | 220 °C |
| CCc1c(-c2ccc(OCc3ccccc3)cc2)c2c(COCCCCCCCN3CCCCC3)cc3c(OCc4ccccc4)ccc1n32 | 86 to 90 °C |
| C=CCOCc1nc(C(C)(C)C)nn1-c1c(Cl)cc(Cl)cc1Cl | 34 to 37 °C |
| COCCN(C)C1=N/C(=C\c2c[nH]c3ncc(Cl)cc23)C(=O)N1 | 281 °C |
| COC(=O)c1c(C)c(OC)cc(O[Si](C)(C)C(C)(C)C(C)C)c1C=O | 69 to 70 °C |
| N=C(N)NC(=O)c1cn([C@H](CO)CCc2ccccc2)cn1 | 111 to 113 °C |
| CCOc1cc(CN2CCN(c3ccc(C(=O)NC)cc3C)CC2)cc2c1OC(C)C(=O)N2 (configuration not stated) | 173 to 180 °C |
| O=C1c2cc3nnn(C4CCC4)c(=O)c3cc2OC2CCCN12 (configuration not stated) | 216 to 218 °C |
| CCCCCCCCCC(O)CNCCNCC(O)CCCCCCCCC (configuration not stated) | 130 to 138 °C |
| CN1CCC(Oc2ccccc2C(N)=O)C1 (configuration not stated) | 116 to 118 °C |
| CCC1(c2cccc(OC)c2)CCCCN(C)C1=O (configuration not stated) | 62 to 64 °C |
| CC(C)CC(=O)Nc1ccc2oc3c(c2c1)CCCCC3 | 162 to 163 °C |
| O=C1N(N2CCOCC2)c2ccccc2C1(Cc1ccnc(F)c1)Cc1ccnc(F)c1 | 198 to 203 °C |
| COc1cccc(C23CCCC=C2C(=O)N(CCc2ccccc2)C(=O)C3)c1 (configuration not stated) | 134 to 135 °C |
| O=C(O)CCc1cn(Cc2cccc(C(=O)Nc3cccnc3)c2)nc1-c1ccccc1 | 131 to 132 °C |
| CCOc1ccc(C(C)=O)cc1S(N)(=O)=O | 148 to 151 °C |

Other lines, results leading:

| melting point | SMILES |
| --- | --- |
| 138 °C | COc1ccc(C(=O)c2cc([N+](=O)[O-])ccc2Cl)cc1OC |
| 184 to 186 °C | C=C(C)C(=O)Oc1ccc2c(c1)C(=O)c1ccccc1C2=O |
| 193 to 195 °C | O=C(O)CON=C1CCCc2cc(OCCn3ccnc3)ccc21 |
| 161 to 162 °C | COc1cc(COc2nn(-c3ccccc3)cc2C=O)ccc1OCc1nc(-c2cccnc2)oc1C |
| 100 to 101 °C | N#CCCCCCCn1c(-c2ccccc2)c(-c2ccccc2)n(-c2ccccc2)c1=O |
| 135 to 140 °C | CC(C)S(=O)(=O)NC(=O)Nc1ccc(Cl)c(C(F)(F)F)c1 |
| 203 to 205 °C | CNC(=O)c1cc(C(=O)O)c2cc(Cc3ccc(F)cc3)cnc2c1O |
| 230 to 231 °C | ON=Cc1ccc(-c2ccc(O)cc2)c2sccc12 |
| 194 to 195 °C | CC(=O)Nc1ccc(Cc2cc(C)c(C(=O)c3ccc(Cl)cc3)n2C)nc1 |
| 192 to 193 °C | Fc1ccc(-c2ncn(C3CCNCC3)c2-c2ccnc(Oc3ccc(-c4ccccc4)cc3)n2)cc1 |
| 205 to 210 °C | O=C(O)Cc1c(C(=O)O)c2cc(Oc3ccc(Cl)c(Cl)c3)ccc2n1-c1ccc(OCC(F)(F)F)cc1 |
| 278 to 279 °C | COc1ccc2c(=O)sc(C(=O)O)cc2c1 |
| 125 to 127 °C | Cc1ccc(C(=O)COc2ccc(Br)cc2CO)cc1 |
| 60 °C | COc1ccc2[nH]c(C(F)(F)F)cc2c1 |
| 79 to 80 °C | CCCC#CCn1ncc(-c2ccc(S(C)(=O)=O)cc2)c(-c2ccc(F)cc2)c1=O |
| 150 to 153 °C | FC(F)C(F)(F)Oc1cccc(Nc2nccc(-c3ccnc(Cl)c3)n2)c1 |
| 185 to 187 °C | COc1cccc(Cn2c(C(=O)O)c(-c3ccc(OCC4CC4)cc3)c3cc(OCc4ccccc4)ccc32)c1 |
| 137 °C | Cc1cc(C)nc(Oc2ccc(-c3ccn(CC4CC4)c(=O)c3C#N)c(F)c2)c1 |
| 83 to 84 °C | CC(=O)c1ccc(CNC(=O)C(F)(F)F)s1 |
| 115 to 116 °C | O=Cc1ccc(CBr)c2ccccc12 |
| 175 to 176 °C | COc1cc(COc2nn(-c3ccccc3)cc2C(N)=O)ccc1OCc1nc(-c2ccco2)oc1C |
| 140 °C | CC(=O)NC1=C(c2cccc(C(F)(F)F)c2)C(=O)OC1 |
| 180 to 182 °C | COc1ccc(NS(=O)(=O)c2ccc([N+](=O)[O-])cc2OC)cc1 |
| 246 to 248 °C | COc1cc(C(=O)c2ccnc3ccccc23)cc([N+](=O)[O-])c1O |

| melting point | SMILES |
| --- | --- |
| 124 to 125 °C | CC(=O)Oc1ccc(/C=C/c2cccc(OC(C)=O)c2)cc1 |
| 126 to 127 °C | CCOC(=O)C1CCN(c2nc(COc3ccc(COc4nn(-c5ccccc5)cc4C=O)cc3OC)c(C)s2)CC1 |
| 125 °C | Cc1cccc(NC(=O)NCC(=O)N(CC(=O)OC(C)(C)C)c2cccc(OC(F)(F)F)c2)c1 |
| 208 °C | COc1ccc(-c2ccc(OC3SCC(OC(C)=O)C(OC(C)=O)C3OC(C)=O)cn2)cc1 (configuration not stated) |
| 261 to 263 °C | Cc1c(Sc2ccc(Cl)cc2)nn(-c2ccc(O)cc2)c(=O)c1C#N |
| 112 to 115 °C | O=C(C=Cc1ccc(OC(F)(F)F)cc1)C=Cc1ccc(OC(F)(F)F)cc1 |
| 265 to 270 °C | COc1cc(Nc2nc3cccc(-c4ccc(NC(C)=O)cc4)c3o2)cc(OC)c1OC |
| 95 to 100 °C | N#CC[C@H](NC(=O)c1ccc2ccccc2c1)C(=O)O |
| 174 to 176 °C | Cc1cc(OCC(=S)Nc2cccc(C(=O)O)c2)ccc1C(C)C |
| 71 to 73 °C | FC(F)(F)Oc1ccc(-n2ccc(CBr)n2)cc1 |
| 240 °C | O=C(NC(Cc1ccccc1)C(=O)O)c1ccc(-c2ccc(OCc3ccccc3)cc2)nc1 (configuration not stated) |
| 221 °C | CCC(C(O)c1ccc(Cl)cc1)n1ncn(-c2ccc(N3CCN(C(=O)NC)CC3)cc2)c1=O (configuration not stated) |
| 51 to 52 °C | CCOC(=O)CC1CCc2ccc(COc3ccc(C#N)cc3)cc2C1 (configuration not stated) |
| 56 to 59 °C | c1ccc(Oc2cccnc2N2CCNCC2)cc1 |
| 139 to 140 °C | CC(=O)Nc1nc(CCc2ccc(NC3=NCCN3)cc2)c(Cc2ccc(S(C)(=O)=O)cc2)s1 |
| 265 to 266 °C | Cn1c(-c2ccc(C(O)(C(F)(F)F)C(F)(F)F)cc2)cc2ccccc2c1=O |
| 116 to 118 °C | Cc1ccc(C(=O)c2c(C)cc(C)cc2OCC(O)CNC(C)(C)C)cc1 (configuration not stated) |
| 118 to 119 °C | CCC1(CCCCN2CCN(c3ccc(F)cc3)CC2)C(=O)Nc2ccccc21 (configuration not stated) |
| 180 to 184 °C | COC(=O)c1cccc(-c2ccnc3c(C(=O)c4cccs4)cnn23)c1 |
| 179 to 180 °C | N=C(Nc1ccccc1)Nc1nc(-c2ccccc2)cs1 |
| 92 to 94 °C | COC(=O)C(C)Oc1cc(C)ccc1COc1ccc([N+](=O)[O-])c(F)c1 (configuration not stated) |
| 74 to 78 °C | O=C(Nc1cccc(F)c1)c1ccccn1 |
| 188 to 189 °C | CCOC(=O)Nc1c(C(=O)c2cccc(Cl)c2)[nH]c2cc(Cl)ccc12 |
